Patent US6127387A, “Use of CD4-binding small molecules to inhibit immune responses” (Thomas Jefferson University, priority 1997, dated 2000)
“Also recorded” adds a separate entry of the source.

How the values were obtained:
CD4-MHC class II binding = biological target: T1, CD4-MHC class II binding (Homo sapiens, UniProt P01730); experiment: CD4-MHC class II cell adhesion (rosette formation) assay, CD4-transfected COS-7 cells with Raji B cells; assay type: cell-based; settings: 100 μM compound, FIG. 2
T1 construct: expressed in transfected cells; host or cells: COS-7 cells (CD4, plasmid T4-pcDNA3); Raji B cells (endogenous MHC class II)
Excerpt: The capacity of a compound to inhibit the interaction of CD4 and class II MHC gene products can be determined by a cell rosetting assay. A cell line, such as Cos-7, Cos-1 or the like, can be transiently transfected with a plasmid bearing a human CD4 cDNA operably linked to a promoter. In an alternative embodiment a COS-1 cell line can be stably transformed with a human CD4 expression plasmid. The human CD4expressing cells and a human class II MHC expressing cell are mixed so that cellular rosettes are formed.
No inhibition of resetting was observed when CD8-pcDNA3 transfected cells were rosetted with Raji cells, which also express MHC, class I products.
The sequence of human CD4 CDNA is given in Maddon, P. J. et al., 1985, CELL 42:93-104, which sequence is hereby incorporated by reference in its entirety. Maddon et al. refers to human CD4 as "T4." The plasmid T4-pMV7, containing the human CD4 cDNA is available from the AIDS Research and Reference Reagent Program, Division of AIDS, NIAID, NIH (McKesson BioServices, Rockville, Md.). The 3.0 Kb Eco R1 fragment of T4-pMV7 contains the 1.5 Kb CD4 CDNA.
For transfection of COS-7 cells, a CD4-expression plasmid T4-pcDNA3, was constructed by subcloning the 3.0 Kb Eco R1 fragment of T4-pMV7 into the EcoRI site of the mammalian expression vector pcDNA3 (INVITROGEN). Transfection was accomplished by DOSPER liposomal transfection reagent (BOEHRINGER MANNHEIM), by the following modification of the manufacturer's protocol.
9. Determine the CD4 expression levels as a measure of transfection efficiency by flow cytometry analysis. Usually between 30% and 40% of transfected COS-7 cells expressed human CD4 as defined by immunofluorescence binding assay for the interaction between CD4 and class II MHC proteins in the presence of organic chemicals by rosette formation: Raji B cells 10^7 in 1 ml of RPMI medium with 10% FCS and […] were added to each well 48 h post-transfection and incubated with transfected COS-7 cells in the presence of the test compound (individually 200 μM) at 37° C. for 1 h. Following incubation, wells were washed five or six times by dropping RPMI medium with FCS into wells. Rosette formation between Raji cells and transfected COS-7 cells was scored microscopically at 100-fold magnification. The number of rosette containing more than five Raji cells was counted in 10 random optical fields in each individual well; 300-400 rosettes per well were counted as the positive control for rosette formation without any inhibition in the absence of any chemicals. The inhibition activity for rosette formation for each chemical was determined by the ratio of the number of rosettes obtained in the presence of this chemical to the number of rosettes in the positive control. […]

[1] = system: B6 recipient mice with bm1 tail skin allografts; experiment: Class I MHC disparate skin allograft survival (CD8+ T cell-mediated B6 anti-bm1 response); assay type: in vivo, mouse; settings: TJU103 single i.v. 100 μg in 0.5% DMSO 3 hours before transplantation, vs 0.5% DMSO diluent, FIG. 7
Method: The lead organic compound TJU103 (N-(3-indoylmethylene)-isonicotinic hydrazone) was tested for inhibition of CD8^+ T-cell mediated allograft survival using the CD8^+ T cell-mediated B6 anti-bm1 response. A single i.v. injection of 100 μg of TJU103 in 0.5% DMSO was administered into B6 recipient mice 3 hours before transplantation of MHC class I-disparate bm1 tail skin allografts following a modified method of Bailey and Usama (1960, Transplant Bull. 7:424 425). A group of mice were treated with anti-CD8 monoclonal antibody (2.43) as a […]. Median survival times were calculated and statistical comparisons were performed by Wilcoxin signed-rank non-parametric analysis using SYSTAT 5.2 software.

SJL mice = experiment: EAE inhibition in vivo (PLP-induced acute EAE); set-up: species or system mouse; settings: single i.v. injection of 50 μg in 0.25% DMSO on day 12 post-challenge, FIG. 3
Method: The lead organic compounds were tested for in vivo immunosuppressive activity in murine EAE, an animal model for multiple sclerosis. An acute form of EAE was induced in SJL mice by subcutaneous challenge with proteolipid (PLP) epitope, MacRae, B. L., et al., 1995, J. Neuroimmunol. 60:17-28, (100 μg in 0.15 ml PBS emulsified in an equal volume of Complete Freund's Adjuvant) on days 0 and 7. Pertussis (Michigan Biological Products, Lansing Mich.) was administered 30 min after antigen injection on day 7 (0.25 ml containing 5×10^9 inactivated organisms, i.v.). Clinical symptoms of EAE were evaluated based on a 0-5 scale of ascending severity of symptoms, as previously described. Korngold, R., et al., 1986, Immunogenetics 24:309-315. The organic compounds were administered by a single i.v. injection of 50 μg of the compound in 0.25% DMSO (the compounds were not soluble in water alone) on day 12 post-challenge.

[2] = system: (B6×CBA)F1 irradiated recipient mice; experiment: CD4+ T cell-mediated graft-versus-host disease lethality; assay type: in vivo, mouse; settings: 100 μg i.v. in 0.5% DMSO on days 0, 3 and 6 post-transplant, vs untreated control, p<0.001, FIG. 5
Method: The lead organic compound TJU103 (N-(3-indoylmethylene)-isonicotinic hydrazone) was tested for in vivo inhibition of CD4^+ T cell-mediatedgraft-versus-host disease lethality. (B6×CBA)F1 irradiated recipient mice were transplanted by i.v. injection with haploidentical (B6×DBA/2)F1 T cell-depleted bone marrow (ATBM) and CD4^+ T cells (3×10^6), which induces lethal graft-versus-host disease (GVHD). TJU103 was administered by i.v. injections at a dose of 100 μg in 0.5% DMSO on days 0, 3, and 6 post-transplant. […] Median survival times were calculated and statistical comparisons were performed by Wilcoxin signed-rank non-parametric analysis using SYSTAT 5.2 software.

[3] = system: C57B1/6 mice challenged with C57B1/6.H-2^bm12 tail skin; experiment: Class II MHC disparate skin allograft rejection (CD4+ T cell-mediated B6 anti-bm12 response); assay type: in vivo, mouse; settings: TJU103 single i.v. 100 μg in 0.5% DMSO 3 hours before transplantation, vs 0.5% DMSO diluent, FIG. 6
Method: The lead organic compounds were tested for inhibition of CD4^+ T cell-mediated skin allograft rejection using the MHC class II disparate model of C57B1/6 mice challenged with C57B1/6.H-2^bm12 tail skin. Following a modified method of Bailey and Usama (1960, Transplant. Bull. 7:424-425), donor tail skin grafts (0.25 cm×0.5 cm) were transplanted onto the ventral side of the tail of the recipient mouse, covered with a glass tube and held into position with short strips of adhesive tape for 2 days. The tubes were removed and the grafts monitored every other day for up to 80 days. […] Syngeneic grafts were also transplanted as negative controls for rejection. Median survival times (MST) were calculated and statistical comparisons were performed by Wilcoxin signed-rank non-parametric analysis utilizing SYSTAT 5.2 software.
The compounds were injected 3 hours before transplantation at a dosage of 50 μg in 0.2 ml 0.25% DMSO. […] Each group contained 4 animals except the TJU102 group, which contained 5 animals.
The lead organic compound TJU103 (N-(3-indoylmethylene)-isonicotinic hydrazone) was tested for inhibition of CD4^+ T cell-mediated skin allograft rejection using the CD4^+ T cell-mediated B6 anti-bm12 response. […] Median survival times were calculated and statistical comparisons were performed by Wilcoxin signed-rank non-parametric analysis using SYSTAT 5.2 software.

inhibition at 100 µM (CD4-MHC class II binding) [%] | Compound | survival time of bm1 allografts [1] | severity of EAE (SJL mice) | median survival time of GVHD recipients [2] | survival time of bm12 allografts [3]
> 40 | Cn1c(CSCc2nc(-c3ccc(Cl)cc3)cs2)nnc1SCc1ccc(Cl)cc1 [TJU101, 5-(4-chlorobenzylthio)-3-{[(4-chlorophenyl)-2-thiazolyl]methylthiomethyl}-4-methyl-1,2,4-triazole] | – | – | – | –
> 40 | COc1ccc(-c2cn3c(n2)sc2ccccc23)cc1 [TJU102] | – | – | – | –
> 40 | O=C(Nc1ccc(Cl)cc1Cl)c1nc(Cn2cncn2)n[nH]1 [TJU104, N-(2,4-dichlorophenyl)-3-(1,2,4-triazol-1-ylmethyl)-1,2,4-triazole-5-carboxamide] | – | statistically significant effect | – | –

Compound | inhibition at 100 µM (CD4-MHC class II binding) [%] | survival time of bm1 allografts [1] | severity of EAE (SJL mice) | median survival time of GVHD recipients [2] | survival time of bm12 allografts [3]
O=C(NN=Cc1c[nH]c2ccccc12)c1ccncc1 [TJU103, N-(3-indoylmethylene)-isonicotinic hydrazone] | > 40 | does not prolong survival time of the allografts | statistically significant effect | significantly prolongs the median survival time; also recorded: effective in prolonging median survival time | prolongs survival time of the allografts; also recorded: effective in prolonging the median survival time of the allografts
